Laboratory results reported in patent publication US11649229B2, “Amide compounds for treatment of immune and inflammatory disorders” (Achillion Pharmaceuticals, Inc., priority 2015, dated 2023).

Target: Human Factor D (Homo sapiens (Human), UniProt P00746)
Assay: Human Factor D assay
Assay type: biochemical
Details: Human Factor D 80 nM, substrate Z-L-Lys-SBzl, assay of Example 12
Protocol: Human Factor D (purified from human serum, Complement Technology, Inc.) at 80 nM final concentration is incubated with test compound at various concentrations for 5 minutes at room temperature in 50 mM Tris, 1M NaCl, pH 7.5. A synthetic substrate Z-L-Lys-SBzl and DTNB (Ellman's reagent) are added to final concentrations of 100 μM each. Absorbance at 405 nm (A405) is recorded at 30 second intervals for 30 minutes using a microplate spectrophotometer. IC50 values are calculated by nonlinear regression of complement Factor D reaction rates as a function of test compound concentration.
The assay of Example 12 was used to determine the IC50's of the compounds. Other standard Factor D inhibition assays are also available.

Sequence of Human Factor D (P00746 26-253): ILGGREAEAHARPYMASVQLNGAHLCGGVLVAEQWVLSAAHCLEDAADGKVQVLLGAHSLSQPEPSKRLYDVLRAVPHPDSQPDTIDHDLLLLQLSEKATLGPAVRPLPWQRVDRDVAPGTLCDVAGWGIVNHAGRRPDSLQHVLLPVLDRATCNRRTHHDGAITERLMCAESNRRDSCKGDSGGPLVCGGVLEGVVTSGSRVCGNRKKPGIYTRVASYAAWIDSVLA

Compound: Cc1cccc(NC(=O)[C@@H]2CCC(F)CCN2C(=O)Cn2cc(C(N)=O)c3cc(C(=O)NS(=O)(=O)C4CC4)ccc32)n1 (stereo partly drawn) [compound 8, N5-(cyclopropylsulfonyl)-1-(2-((2S)-5-fluoro-2-((6-methylpyridin-2-yl)carbamoyl)azepan-1-yl)-2-oxoethyl)-1H-indole-3,5-dicarboxamide]
- IC50: > 10 µM
